Experimental data as given in patent US20120269815A1, “NEUROTROPHINS AND USES THEREOF” (Regents of the University of Minnesota, priority 2008, published 2012).
Entries after “also recorded” stand apart in the source; their conditions may differ. No end group written: not given here.

Columns and labels:
[1] = Fear-potentiated startle after ICV TUF1 peptide infusion; assay type: in vivo, rat; conditions: adult male rats
Procedure: (§1) a) Intra-cerebroventricular (ICV) Cannulation Male Sprague-Dawley rats weighing 250-400 grams were anesthetized with ketamine (100 mg/kg) and xylazine (7 mg/kg) and placed in a stereotaxic device (David Kopf Instruments Corp., Tunjunga, Calif.) using atraumatic ear bars. An incision of the skin overlying the skull was made and anchor screws were inserted into the skull. Burr holes were drilled to allow the guide cannula to pass into the brain. The guide cannula (22-gauge, C313G; Plastics One, Roanoke, Va.) was placed at 0 mm posterior, 1.2 mm lateral and 3.5 mm ventral to bregma. The cannula was affixed using epoxy glue (Loctite 444; McMaster-Carr, Chicago, Ill.) followed by dental acrylic (Hygienic perm reline & repair resin, Type II, Class I; Henry Schein, Inc., Melville, N.Y.). The cannula was sealed and kept open by insertion of a ‘dummy’ cannula. […]
(§2) For fear potentiated startle, shock sensitization, and prepulse inhibition testing, animals were trained and tested in four identical 7.5 cm×9 cm×17 cm stabilimeter devices. […] Shock intensity was measured with a 1-kΩ resistor across a differential channel of an oscilloscope in series with a 100-kΩ resistor connected between two floor bars in each cage. Current was defined as the RMS voltage across the resistor and calculated in mA as 0.707×0.5 ×peak-to-peak voltage. […]

[2] = Prepulse inhibition of startle after ICV TUF1 peptide infusion; assay type: in vivo, rat; conditions: adult male rats, 1.0 μg or 10 μg ICV
Procedure: as §1, §2

GT1-1 cells = conditions: 24 hr serum deprivation, 3.6 μM peptide
Procedure: GT1-1 cell survival assays: GT1-1 cells are immortalized cell line derived from mouse embryonic hypothalamus (a gift from Dr. Richard Weiner, UCSF).
a) Suppression of TUF1 expression by RNAi GT1-1 cells were seeded at 100,000 cells/well in a 12-well plate (as described in Example 1) and incubated for 72 hours at 37° C. supplemented with 5% CO2. Fresh growth media were added for at least 1 hour before cells were transfected with negative control RNAi or TUF1-specific RNAi (150 picomoles diluted in OptiMEM, Stealth RNAi, Invitrogen Corp., Carlsbad, Calif.) using Fugene6 (1.5 μl/200 μl medium, Roche Diagnostics Corp., Indianapolis, Ind.) and incubated overnight. […] Cells were then lifted from the well by adding Trypsin-EDTA (Invitrogen Corp., Carlsbad, Calif.) and surviving cells were counted by Trypan Blue exclusion using a hemocytometer and an inverted microscope. […]
b) Repression of TUF1 activity by anti-TUF1 peptide antibody (IgG) GT1-1 cells were seeded at 100,000 cells/well and incubated for 72 hours as described above. […] Surviving cells were lifted from wells and counted as described in part (a). […]
Cells were treated with serum-free media supplemented with 0.0 μg/ml, 2.5 μg/ml (1.8 μM), or 5.0 μg/m (3.6 μM) TUF1 peptide. Surviving cells were counted at 24 hours, 48 hours, and 72 hours of incubation as described in part (a). […]

COS7 cells = experiment: COS7 cell survival following serum deprivation (Trypan blue uptake); assay type: cell-based; conditions: 5 nM peptide
Procedure: To gain insight into the binding of TUF1[43-54] peptide and p75^NTR, serum deprivation was used as a stressor to COS7 cells transfected with pCMV-SPORT6-p75 expression vector. COS7 cells were seeded at 15,000 cells/well in 12-well plates, transfected with 300 ng pCMV-eGFP (control) or 300 ng pCMV-SPORT6-p75, and incubated overnight. Cells were then incubated in serum-free medium or serum-free medium supplemented with 5 nM TUF1[43-54]. Cells were assessed for Trypan blue dye uptake at 24, 48, and 72 hours.
Immediately after removing growth medium, cells were rinsed with PBS and incubated in 100 μl 0.4% Trypan blue dye diluted in PBS. Images of cells were captured at 10× magnification using an inverted microscope equipped with a CCD camera. Trypan blue-positive cells were counted using Adobe Photoshop CS3 (Adobe Systems Inc., San Jose, Calif.). Graphs and statistics were performed using Prism Graphpad 4.0 (GraphPad Software Inc., San Diego, Calif.).

For AYKSYVRALPLL [TUF1[43-54]], the shock reactivity ([1]; 1.0 μg or 10 μg ICV) was “No effect”, the fear potentiated startle ([1]; 1.0 μg or 10 μg via lateral ventricle cannulae, vs control subjects) was “reduced fear potentiated startle” and the pre-pulse inhibition [2] was “No effect”. The “effect on cell survival” value (GT1-1 cells) was “no effect”, the “survival benefit of peptide in presence of p75^NTR” value (COS7 cells; COS7 cells transfected with pCMV-SPORT6-p75, serum deprivation) was “removed the survival benefit” and the “cell survival / cell death following serum deprivation” value (COS7 cells; Trypan blue-positive cells at 24, 48, 72 hours, control-transfected COS7 cells) was “promotes cell survival; also recorded: reduces in vitro cell death following serum deprivation”.
